Laboratory results taken from patent US10501461B2, “Tyrosine amide derivatives as Rho-kinase inhibitors” (CHIESI FARMACEUTICI S.P.A., priority 2017, dated 2019).

Tests used:
[1] = molecular target: Rho kinase 1 (ROCK-I) (Homo sapiens, UniProt Q13464); test: In vitro Rho kinase inhibitory activity assay (ADP-Glo), Rho kinase 1; type: biochemical; conditions: 10 μM ATP, 25° C., expressed as range of activity
Procedure, shortened: (§1)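 ADP-Glo luminescence assay at 25 °C in 40 mM Tris pH 7.5, 20 mM MgCl2, 0.1 mg/ml BSA, 50 μM DTT, with 2.5 μM myelin basic protein, 10 μM ATP and 1% DMSO. Compound and ROCK1 or ROCK2 were preincubated 30 min, then reacted 1 h. IC50 came from a sigmoidal fit; Ki via Cheng-Prusoff.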

[2] = molecular target: Rho kinase 2 (ROCK-II) (Homo sapiens, UniProt O75116); test: In vitro Rho kinase inhibitory activity assay (ADP-Glo), Rho kinase 2; type: biochemical; conditions: 10 μM ATP, 25° C., expressed as range of activity
Chain of Rho kinase 2 (ROCK-II) (O75116 whole entry): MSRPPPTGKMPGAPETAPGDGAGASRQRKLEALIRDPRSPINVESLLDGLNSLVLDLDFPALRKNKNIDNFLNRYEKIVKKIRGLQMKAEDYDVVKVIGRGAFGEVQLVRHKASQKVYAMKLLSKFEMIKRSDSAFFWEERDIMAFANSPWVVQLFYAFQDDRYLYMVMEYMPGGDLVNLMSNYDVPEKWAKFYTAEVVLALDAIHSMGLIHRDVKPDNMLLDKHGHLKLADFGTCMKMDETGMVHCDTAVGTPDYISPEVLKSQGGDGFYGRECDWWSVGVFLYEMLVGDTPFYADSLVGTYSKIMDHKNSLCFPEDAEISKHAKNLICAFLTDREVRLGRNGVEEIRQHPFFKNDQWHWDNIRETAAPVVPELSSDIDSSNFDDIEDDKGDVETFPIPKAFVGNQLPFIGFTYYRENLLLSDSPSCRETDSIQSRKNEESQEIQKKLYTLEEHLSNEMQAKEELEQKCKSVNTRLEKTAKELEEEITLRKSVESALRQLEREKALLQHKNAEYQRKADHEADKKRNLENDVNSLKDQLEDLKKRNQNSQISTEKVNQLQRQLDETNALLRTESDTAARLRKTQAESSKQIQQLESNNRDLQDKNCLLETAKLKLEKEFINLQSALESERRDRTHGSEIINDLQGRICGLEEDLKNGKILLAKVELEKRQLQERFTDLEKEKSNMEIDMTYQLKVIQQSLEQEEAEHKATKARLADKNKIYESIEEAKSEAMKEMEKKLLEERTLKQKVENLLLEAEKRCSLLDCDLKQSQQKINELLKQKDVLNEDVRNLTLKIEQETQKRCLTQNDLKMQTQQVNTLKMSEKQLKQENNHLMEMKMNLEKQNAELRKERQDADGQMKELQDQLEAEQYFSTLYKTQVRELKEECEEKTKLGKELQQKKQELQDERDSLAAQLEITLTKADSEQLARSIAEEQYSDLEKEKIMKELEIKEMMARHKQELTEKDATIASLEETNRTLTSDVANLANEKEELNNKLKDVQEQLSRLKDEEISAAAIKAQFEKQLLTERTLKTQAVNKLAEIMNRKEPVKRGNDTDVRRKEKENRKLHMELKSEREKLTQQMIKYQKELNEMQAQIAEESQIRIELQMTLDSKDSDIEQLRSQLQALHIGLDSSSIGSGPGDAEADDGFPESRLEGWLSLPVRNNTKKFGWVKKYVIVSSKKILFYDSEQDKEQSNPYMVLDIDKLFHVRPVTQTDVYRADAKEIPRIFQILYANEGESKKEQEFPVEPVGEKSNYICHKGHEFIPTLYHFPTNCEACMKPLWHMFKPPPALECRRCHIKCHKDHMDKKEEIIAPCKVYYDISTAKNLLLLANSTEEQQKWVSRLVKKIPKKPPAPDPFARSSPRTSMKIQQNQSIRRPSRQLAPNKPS
Procedure, shortened: as §1

Chain of Rho kinase 1 (ROCK-I) (Q13464 whole entry): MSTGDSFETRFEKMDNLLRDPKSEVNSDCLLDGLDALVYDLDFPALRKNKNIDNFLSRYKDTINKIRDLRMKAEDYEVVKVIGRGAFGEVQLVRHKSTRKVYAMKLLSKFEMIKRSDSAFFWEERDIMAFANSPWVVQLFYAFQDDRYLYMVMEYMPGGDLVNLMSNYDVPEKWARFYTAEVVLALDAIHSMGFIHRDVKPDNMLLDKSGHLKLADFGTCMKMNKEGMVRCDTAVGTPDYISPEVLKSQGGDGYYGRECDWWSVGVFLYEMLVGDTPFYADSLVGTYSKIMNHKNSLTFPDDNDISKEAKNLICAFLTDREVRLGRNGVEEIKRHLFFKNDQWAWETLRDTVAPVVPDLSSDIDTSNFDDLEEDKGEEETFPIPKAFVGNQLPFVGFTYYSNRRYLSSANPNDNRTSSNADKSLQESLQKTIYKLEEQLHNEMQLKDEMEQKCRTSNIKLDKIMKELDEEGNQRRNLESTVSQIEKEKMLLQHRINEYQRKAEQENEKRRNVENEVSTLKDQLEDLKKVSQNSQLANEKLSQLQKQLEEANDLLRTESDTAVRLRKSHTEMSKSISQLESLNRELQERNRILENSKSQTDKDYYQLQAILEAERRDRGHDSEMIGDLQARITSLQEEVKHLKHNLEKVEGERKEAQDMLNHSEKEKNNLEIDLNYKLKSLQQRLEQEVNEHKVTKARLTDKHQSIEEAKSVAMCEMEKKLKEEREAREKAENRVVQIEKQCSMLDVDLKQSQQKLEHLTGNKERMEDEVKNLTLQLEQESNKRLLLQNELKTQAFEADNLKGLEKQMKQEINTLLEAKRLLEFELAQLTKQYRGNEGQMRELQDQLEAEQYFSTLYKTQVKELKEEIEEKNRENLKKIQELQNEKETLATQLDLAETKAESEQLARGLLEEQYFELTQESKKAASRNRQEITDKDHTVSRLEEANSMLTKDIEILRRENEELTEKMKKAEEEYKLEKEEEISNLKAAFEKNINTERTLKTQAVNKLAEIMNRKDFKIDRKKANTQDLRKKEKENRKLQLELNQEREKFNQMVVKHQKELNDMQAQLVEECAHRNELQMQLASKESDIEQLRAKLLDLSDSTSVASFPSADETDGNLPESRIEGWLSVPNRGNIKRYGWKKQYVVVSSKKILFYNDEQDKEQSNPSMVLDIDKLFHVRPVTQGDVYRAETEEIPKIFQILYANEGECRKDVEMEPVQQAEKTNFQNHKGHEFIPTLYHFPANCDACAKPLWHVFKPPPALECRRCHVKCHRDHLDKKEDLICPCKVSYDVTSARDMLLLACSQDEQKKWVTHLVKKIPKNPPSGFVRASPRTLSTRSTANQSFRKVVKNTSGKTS

| Structure (SMILES) | Ki [1] [nM] | Ki [2] [nM] |
| --- | --- | --- |
| Cc1c[nH]c2nccc(Oc3ccc(CC(N)C(=O)N4Cc5ccncc5C4)cc3F)c12 (stereo not drawn) [Example 65, 2-amino-3-(3-fluoro-4-((3-methyl-1H-pyrrolo[2,3-b]pyridin-4-yl)oxy)phenyl)-1-(1H-pyrrolo[3,4-c]pyridin-2(3H)-yl)propan-1-one] | < 3 | < 3 |
| Cc1c[nH]c2nccc(Oc3ccc(C[C@@H](N)C(=O)NC4CCCCC4)cc3F)c12 [Example 148, (R)-2-amino-N-cyclohexyl-3-(3-fluoro-4-((3-methyl-1H-pyrrolo[2,3-b]pyridin-4-yl)oxy)phenyl)propanamide] | < 3 | < 3 |
| N[C@@H](Cc1ccc(Oc2ccnc3[nH]cc(C4=CCNC4)c23)cc1)C(=O)N1CCN(Cc2ccccc2)CC1 [Example 202, (S)-2-amino-1-(4-benzylpiperazin-1-yl)-3-(4-((3-(2,5-dihydro-1H-pyrrol-3-yl)-1H-pyrrolo[2,3-b]pyridin-4-yl)oxy)phenyl)propan-1-one] | 3 to 30 | 3 to 30 |
| Cc1c[nH]c2nccc(Oc3ccc(C[C@H](N)C(=O)N4CCN(Cc5ccnnc5)CC4)cc3F)c12 [Example 153, (S)-2-amino-3-(3-fluoro-4-((3-methyl-1H-pyrrolo[2,3-b]pyridin-4-yl)oxy)phenyl)-1-(4-(pyridazin-4-ylmethyl)piperazin-1-yl)propan-1-one] | < 3 | < 3 |
| Cc1c[nH]c2nccc(Oc3ccc(C[C@H](N)C(=O)N4CCC(S(=O)(=O)c5ccccc5)CC4)cc3F)c12 [Example 7, (S)-2-amino-3-(3-fluoro-4-((3-methyl-1H-pyrrolo[2,3-b]pyridin-4-yl)oxy)phenyl)-1-(4-(phenylsulfonyl)piperidin-1-yl)propan-1-one] | < 3 | < 3 |
| Cc1c[nH]c2nccc(Oc3ccc(C[C@H](N)C(=O)N4CCN(S(=O)(=O)c5ccccc5)CC4)cc3F)c12 [Example 22, (S)-2-amino-3-(3-fluoro-4-((3-methyl-1H-pyrrolo[2,3-b]pyridin-4-yl)oxy)phenyl)-1-(4-(phenylsulfonyl)piperazin-1-yl)propan-1-one] | < 3 | < 3 |
| CN(C)C(Cc1ccc(Oc2ccnc3[nH]ccc23)cc1)C(=O)NC1CCCCC1 (stereo not drawn) [Example 183, 3-(4-((1H-pyrrolo[2,3-b]pyridin-4-yl)oxy)phenyl)-N-cyclohexyl-2-(dimethylamino)propanamide] | > 30 | 3 to 30 |
| N[C@H](Cc1ccc(Oc2ccnc3[nH]ccc23)cc1)C(=O)NC1CCCCC1 [Example 112, (R)-3-(4-((1H-pyrrolo[2,3-b]pyridin-4-yl)oxy)phenyl)-2-amino-N-cyclohexylpropanamide] | > 30 | 3 to 30 |
| CN(C)CCNC(=O)[C@H](N)Cc1ccc(Oc2ccnc3[nH]ccc23)cc1 [Example 96, (R)-3-(4-((1H-pyrrolo[2,3-b]pyridin-4-yl)oxy)phenyl)-2-amino-N-(2-(dimethylamino)ethyl)propanamide] | > 30 | > 30 |
| Cc1c[nH]c2nccc(Oc3ccc(C[C@H](N)C(=O)N4CCC[C@@H](N(C)C)C4)cc3F)c12 [Example 50, (S)-2-amino-1-((R)-3-(dimethylamino)piperidin-1-yl)-3-(3-fluoro-4-((3-methyl-1H-pyrrolo[2,3-b]pyridin-4-yl)oxy)phenyl)propan-1-one] | < 3 | < 3 |
| N[C@@H](Cc1ccc(Oc2ccnc3[nH]cc(CO)c23)c(F)c1)C(=O)NC1CCCCC1 [Example 208, (S)-2-amino-N-cyclohexyl-3-(3-fluoro-4-((3-(hydroxymethyl)-1H-pyrrolo[2,3-b]pyridin-4-yl)oxy)phenyl)-propanamide] | < 3 | < 3 |
| Cc1c[nH]c2nccc(Oc3ccc(CC(N)C(=O)N4CCCC4c4ccccc4)cc3F)c12 (single isomer, unassigned) [Example 84, 2-amino-3-(3-fluoro-4-((3-methyl-1H-pyrrolo[2,3-b]pyridin-4-yl)oxy)phenyl)-1-(2-phenylpyrrolidin-1-yl)propan-1-one] | 3 to 30 | 3 to 30 |
| CSc1nccc(CN2CCN(C(=O)[C@@H](N)Cc3ccc(Oc4ccnc5[nH]cc(C)c45)c(F)c3)CC2)n1 [Example 154, (S)-2-amino-3-(3-fluoro-4-((3-methyl-1H-pyrrolo[2,3-b]pyridin-4-yl)oxy)phenyl)-1-(4-((2-(methylthio)pyrimidin-4-yl)methyl)piperazin-1-yl)propan-1-one] | < 3 | < 3 |
| N[C@@H](Cc1ccc(Oc2ncnc3[nH]ccc23)cc1)C(=O)NC1CCCCC1 [Example 225, (S)-3-(4-((7H-pyrrolo[2,3-d]pyrimidin-4-yl)oxy)phenyl)-2-amino-N-cyclohexylpropanamide] | > 30 | > 30 |
| CC(N)(Cc1ccc(Oc2ccnc3[nH]ccc23)cc1)C(=O)NC1CCOCC1 (stereo not drawn) [Example 151, 3-(4-((1H-pyrrolo[2,3-b]pyridin-4-yl)oxy)phenyl)-2-amino-2-methyl-N-(tetrahydro-2H-pyran-4-yl)propanamide] | > 30 | > 30 |
| Cc1c[nH]c2nccc(Oc3ccc(C[C@H](N)C(=O)NC4CCOCC4)cc3F)c12 [Example 54, (S)-2-amino-3-(3-fluoro-4-((3-methyl-1H-pyrrolo[2,3-b]pyridin-4-yl)oxy)phenyl)-N-(tetrahydro-2H-pyran-4-yl)propanamide] | < 3 | < 3 |
| N[C@H](Cc1ccc(Oc2ccnc3[nH]ccc23)cc1)C(=O)Nc1ccccc1 [Example 110, (R)-3-(4-((1H-pyrrolo[2,3-b]pyridin-4-yl)oxy)phenyl)-2-amino-N-phenylpropanamide] | > 30 | 3 to 30 |
| N[C@@H](Cc1ccc(Oc2ccnc3[nH]cc(Br)c23)c(F)c1)C(=O)NC1CCCCC1 [Example 186, (S)-2-amino-3-(4-((3-bromo-1H-pyrrolo[2,3-b]pyridin-4-yl)oxy)-3-fluorophenyl)-N-cyclohexylpropanamide] | < 3 | < 3 |

Results, then the molecule that gave them:

| Ki [1] [nM] | Ki [2] [nM] | Structure (SMILES) |
| --- | --- | --- |
| < 3 | < 3 | Cc1c[nH]c2nccc(Oc3ccc(C[C@H](N)C(=O)N4CCN(C(=O)Cc5ccccc5)CC4)cc3F)c12 [Example 169, (S)-2-amino-3-(3-fluoro-4-((3-methyl-1H-pyrrolo[2,3-b]pyridin-4-yl)oxy)phenyl)-1-(4-(2-phenylacetyl-)piperazin-1-yl)propan-1-one] |
| > 30 | > 30 | N[C@H](Cc1ccc(Oc2ccnc3[nH]ccc23)cc1)C(=O)Nc1nccs1 [Example 106, (R)-3-(4-((1H-pyrrolo[2,3-b]pyridin-4-yl)oxy)phenyl)-2-amino-N-(thiazol-2-yl)propanamide] |
| 3 to 30 | < 3 | Cc1c[nH]c2nccc(Oc3ccc(CC(N)C(=O)N4CCN(Cc5ccccc5)CC4)cc3F)c12 (single isomer, unassigned) [Example 132B, 2-amino-1-(4-benzylpiperazin-1-yl)-3-(3-fluoro-4-((3-methyl-1H-pyrrolo[2,3-b]pyridin-4-yl)oxy)phenyl)propan-1-one] |
| < 3 | < 3 | Cc1c[nH]c2nccc(Oc3ccc(C[C@H](N)C(=O)N4CCN(C(=O)c5ccccc5)CC4)cc3F)c12 [Example 167, (S)-2-amino-1-(4-benzoylpiperazin-1-yl)-3-(3-fluoro-4-((3-methyl-1H-pyrrolo[2,3-b]pyridin-4-yl)oxy)phenyl)propan-1-one] |
| < 3 | < 3 | Cc1c[nH]c2nccc(Oc3ccc(CC(N)C(=O)N4CCN(C)CC4)cc3F)c12 (stereo not drawn) [Example 59, 2-amino-3-(3-fluoro-4-((3-methyl-1H-pyrrolo[2,3-b]pyridin-4-yl)oxy)phenyl)-1-(4-methylpiperazin-1-yl)propan-1-one] |
| < 3 | < 3 | Cc1c[nH]c2nccc(Oc3ccc(CC(N)C(=O)N4CCN(CCc5ccccc5)CC4)cc3F)c12 (stereo not drawn) [Example 53, 2-amino-3-(3-fluoro-4-((3-methyl-1H-pyrrolo[2,3-b]pyridin-4-yl)oxy)phenyl)-1-(4-phenethylpiperazin-1-yl)propan-1-one] |
| < 3 | < 3 | Cc1c[nH]c2nccc(Oc3ccc(C[C@H](N)C(=O)Nc4ccccc4)cc3F)c12 [Example 145, (S)-2-amino-3-(3-fluoro-4-((3-methyl-1H-pyrrolo[2,3-b]pyridin-4-yl)oxy)phenyl)-N-phenylpropanamide] |
| < 3 | < 3 | Cc1c[nH]c2nccc(Oc3ccc(C[C@H](N)C(=O)N4CCC(c5ccncc5)CC4)cc3F)c12 [Example 12, (S)-2-amino-3-(3-fluoro-4-((3-methyl-1H-pyrrolo[2,3-b]pyridin-4-yl)oxy)phenyl)-1-(4-(pyridin-4-yl)piperidin-1-yl)propan-1-one] |
| < 3 | < 3 | Cc1noc(C2CCN(C(=O)[C@@H](N)Cc3ccc(Oc4ccnc5[nH]cc(C)c45)c(F)c3)C2)n1 (single isomer, unassigned) [Example 8B] |
| < 3 | < 3 | Cc1c[nH]c2nccc(Oc3ccc(C[C@H](N)C(=O)N4CCN(C(=O)c5nccs5)CC4)cc3F)c12 [Example 177, (S)-2-amino-3-(3-fluoro-4-((3-methyl-1H-pyrrolo[2,3-b]pyridin-4-yl)oxy)phenyl)-1-(4-(thiazole-2-carbonyl)piperazin-1-yl)propan-1-one] |
| < 3 | < 3 | Cc1c[nH]c2nccc(Oc3ccc(C[C@H](N)C(=O)NC4CCCCC4)cc3F)c12 [Example 20, (S)-2-amino-N-cyclohexyl-3-(3-fluoro-4-((3-methyl-1H-pyrrolo[2,3-b]pyridin-4-yl)oxy)phenyl)propanamide] |
| < 3 | < 3 | Cc1c[nH]c2nccc(Oc3ccc(C[C@H](N)C(=O)N4CCN(Cc5ccccn5)CC4)cc3F)c12 [Example 27, (S)-2-amino-3-(3-fluoro-4-((3-methyl-1H-pyrrolo[2,3-b]pyridin-4-yl)oxy)phenyl)-1-(4-(pyridin-2-ylmethyl)piperazin-1-yl)propan-1-one] |
